Results published in EP0321100A2, “Piperazine derivatives, their acid addition salts and a process for the preparation of same” (SPOFA spojené podniky pro zdravotnickou vyrobu, priority 1987, dated 1989).
Like-named read-outs stand apart in the source and are kept apart here.

Assays:
[1] = target: T1, dopamine D-2 receptors in the rat brain striatum (Rattus norvegicus, UniProt P61169); experiment: Inhibition of binding of 3H-spiperone to dopamine D-2 receptors; settings: inhibition of binding of 0.5 nM ³H-spiperone, read-out: medium inhibitory concentration IC₅₀
T1 construct: dopamine D-2 receptors in the rat brain striatum; from tissue; host or cells: rat brain striatum

[2] = system: dopamine turnover and metabolism in rat brain striatum; experiment: Antidopaminergic activity: effect on dopamine turnover and metabolism (homovanillic acid level) in rat brain; type: in vivo; settings: for increase in the concentration of homovanillic acid (% concentration of the metabolite in comparison with the control taken for 100 %): rat brain striatum, oral 80 mg/kg dose; for minimal effective dose: Rattus norvegicus, po, read-out: threshold dose which significantly increased homovanillic acid level
in vivo [3] = settings: mouse, po
[4] = Depot neuroleptic evaluation (method not described); type: in vivo; settings: solution of the base (375 mg/ml) in Miglyol 812
Description: 2-{4-[2-(2-Chloro-10,11-dihydrodibenzo(b,f)thiepin-10-yloxy)ethyl]piperazin 1-yl} ethanol (compound I-A); succinate 3-{4-[2-(2-Chloro-10,11-dihydrodibenzo(b,f)thiepin-10-yloxy)ethyl]piperazin-1-yl} propanol (I-B); bis(hydrogensuccinate) 1-[2-(2-Chloro-10,11-dihydrodibenzo(b,f)thiepin-10-yloxy)ethyl]-4-methylpiperazine (I-C); bis(hydrogensuccinate) 1-[2-(2-Chloro-10,11-dihydrodibenzo(b,f)thiepin-10-yloxy)ethyl]piperazine (I-D); succinate 2-{4-[2-(2-Chloro-10,11-dihydrodibenzo(b,f)thiepin-10-yloxy)ethyl]piperazin-1-yl} ethyl acetate (I-E); bis(hydrogensuccinate) 2-{4-[2-(2-Chloro 10,11-dihydrodibenzo(b,f)thiepin-10-yloxy)ethyl]piperazin-1-yl} ethyl decanoate (I-F); tested as a solution of the base (375 mg/ml) in Miglyol 812 (Trade Mark).

[5] = system: spontaneous locomotor activity in mice; experiment: Inhibition of spontaneous locomotor activity in mice, photocell method after Dews; type: in vivo; settings: Mus musculus, oral, read-out: medium inhibitory dose D₅₀
in vivo [6] = experiment: in vivo; parameters: species or system mice; settings: mouse, po
Experimental: (§1) Discoordinating effect (rota-rod test in mice), medium effective dose ED₅₀ 44.0 mg/kg, is still […] than for thioridazine (Taeschler M., Cerletti A., Schweiz.Med. Wochschr. 88, 1216, 1958); this is advantageous. […] Adrenolytic activity in mice is very low: an oral dose as high as 100 mg/kg prevents adrenaline-induced lethality in 20 % of the animals.

[7] = system: apomorphine-induced emesis in dogs; experiment: Inhibition of apomorphine-induced emesis in dogs; type: in vivo; settings: 10 mg/kg, interval of 4 hours after administration
[8] = system: adrenaline-induced lethality; experiment: Adrenolytic activity in mice (adrenaline-induced lethality); type: in vivo; settings: oral dose 100 mg/kg
Experimental: as §1

Maccacus rhesus monkeys = settings: rhesus monkey, in vivo, po, 10 mg/kg
[9] = target: T2, dopamine D-1 receptors in rat striatum (Rattus norvegicus, UniProt P18901); experiment: Affinity to dopamine D-1 receptors; type: binding
T2 construct: dopamine D-1 receptors in rat striatum; from tissue; host or cells: rat striatum

[10] = Anticholinergic activity in vitro
[11] = Anticholinergic activity in vivo
re-uptake of serotonin = experiment: Inhibition of re-uptake of serotonin in rat brain; type: biochemical
[12] = system: re-uptake of noradrenaline; experiment: Inhibition of re-uptake of noradrenaline in rat brain; type: biochemical
mice = settings: reference compound, for comparison, literature citation given; cited from earlier work

T1 sequence (P61169 whole entry): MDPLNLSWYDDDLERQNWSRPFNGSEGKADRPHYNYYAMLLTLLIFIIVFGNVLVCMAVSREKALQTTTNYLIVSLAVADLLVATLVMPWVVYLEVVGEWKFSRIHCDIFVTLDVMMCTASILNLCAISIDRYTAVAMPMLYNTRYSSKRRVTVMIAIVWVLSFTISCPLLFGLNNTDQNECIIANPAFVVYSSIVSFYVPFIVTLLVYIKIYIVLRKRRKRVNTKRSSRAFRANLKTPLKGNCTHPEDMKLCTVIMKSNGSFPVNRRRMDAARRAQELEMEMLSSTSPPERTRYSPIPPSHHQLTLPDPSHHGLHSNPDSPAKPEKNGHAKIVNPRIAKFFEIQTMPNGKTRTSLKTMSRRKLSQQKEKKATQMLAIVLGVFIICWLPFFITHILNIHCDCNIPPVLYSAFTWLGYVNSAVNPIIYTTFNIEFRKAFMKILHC
T2 sequence (P18901 whole entry): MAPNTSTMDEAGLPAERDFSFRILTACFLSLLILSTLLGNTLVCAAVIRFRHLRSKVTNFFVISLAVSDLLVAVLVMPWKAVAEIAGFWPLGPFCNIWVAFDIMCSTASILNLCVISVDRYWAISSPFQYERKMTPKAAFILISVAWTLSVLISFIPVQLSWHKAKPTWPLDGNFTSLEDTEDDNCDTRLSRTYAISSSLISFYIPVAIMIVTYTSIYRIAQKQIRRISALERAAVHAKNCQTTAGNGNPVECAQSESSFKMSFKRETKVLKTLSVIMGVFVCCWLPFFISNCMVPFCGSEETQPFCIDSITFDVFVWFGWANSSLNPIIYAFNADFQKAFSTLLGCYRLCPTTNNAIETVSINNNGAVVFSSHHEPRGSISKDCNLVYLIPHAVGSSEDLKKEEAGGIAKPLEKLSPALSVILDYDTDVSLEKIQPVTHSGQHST

CC(=O)OCCN1CCN(CCOC2Cc3cc(Cl)ccc3Sc3ccccc32)CC1 (racemic) [I-E, 2-{4-[2-(2-Chloro-10,11-dihydrodibenzo(b,f)thiepin-10-yloxy)ethyl]piperazin-1-yl} ethyl acetate]
IC50 [1]: 0.219 µM
increase in the concentration of homovanillic acid (% concentration of the metabolite in comparison with the control taken for 100 %) [2]: 244%
LD50 (in vivo [3]): 691 mg/kg

CCCCCCCCCC(=O)OCCN1CCN(CCOC2Cc3cc(Cl)ccc3Sc3ccccc32)CC1 (racemic) [I-F, 2-{4-[2-(2 Chloro-10,11-dihydrodibenzo(b,f)thiepin-10-yloxy)ethyl]piperazin-1-yl} ethyl decanoate]
duration of neuroleptic action [4]: substantially prolonged action

OCCN1CCN(CCOC2Cc3cc(Cl)ccc3Sc3ccccc32)CC1 (centres unmarked) [I-A, 2-{4-[2-(2-Chloro-10,11-dihydrodibenzo(b,f)thiepin-10-yloxy)ethyl]piperazin-1-yl} ethanol]
ED50 [5]: 15.7 mg/kg
IC50 [1]: 0.212 µM
minimal effective dose ([2]; corpus striatum): 20 mg/kg
minimal effective dose ([2]; tuberculum olfactorium): 10 mg/kg
increase in the concentration of homovanillic acid (% concentration of the metabolite in comparison with the control taken for 100 %) [2]: 504%
TD50 (in vivo [6]): 44 mg/kg
inhibition of apomorphine-induced emesis [7]: inhibitory effect
prevention of adrenaline-induced lethality, share of the animals [8]: 20%
blood pressure (Maccacus rhesus monkeys): do not affect
general behaviour of the animals (Maccacus rhesus monkeys): do not affect
heart rhythm (pulse rate) (Maccacus rhesus monkeys): do not affect
affinity to dopamine D-1 receptors [9]: slight affinity
anticholinergic activity [10]: very low
anticholinergic activity [11]: very low
inhibition of re-uptake of serotonin (re-uptake of serotonin): weak inhibitor
inhibition of re-uptake of noradrenaline [12]: weak inhibitor
LD50 (in vivo [3]): 346 mg/kg

OCCCN1CCN(CCOC2Cc3cc(Cl)ccc3Sc3ccccc32)CC1 (centres unmarked) [I-B, 3-{4-[2-(2-Chloro-10,11-dihydrodibenzo(b,f)thiepin-10-yloxy)ethyl]piperazin-1-yl} propanol]
IC50 [1]: 0.35 µM
LD50 (in vivo [3]): 618 mg/kg

CN1CCN(CCOC2Cc3cc(Cl)ccc3Sc3ccccc32)CC1 (centres unmarked) [I-C, 1-[2-(2-Chloro-10,11-dihydrodibenzo(b,f)thiepin-10-yloxy)ethyl]-4-methylpiperazine]
IC50 [1]: 0.264 µM
LD50 (in vivo [3]): 401 mg/kg

Clc1ccc2c(c1)CC(OCCN1CCNCC1)c1ccccc1S2 (centres unmarked) [I-D, 1-[2-(2-Chloro-10,11-dihydrodibenzo(b,f)thiepin-10-yloxy)ethyl]piperazine]
IC50 [1]: 1 µM
LD50 (in vivo [3]): 509 mg/kg

CN1CCN(C2=Nc3cc(Cl)ccc3Nc3ccccc32)CC1 [clozapine, reference compound]
ED50 [5]: 1.05 mg/kg
acute toxicity, LD₅₀ (mice): 199 mg/kg
